The values below come from ChEMBL document CHEMBL1201862, “PubChem BioAssay data set” (2004).

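Interpolation was linear, between the two tested concentrations surrounding the appropriate level; five concentrations were tested over 48 hours in 96-well plates. GI50 is the concentration that inhibits growth by half.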 The source made the active and inactive calls. No stated cut-off is given here; in the data, active = GI50 up to about 1.1 µM and inactive = higher.

Holding throughout (test): inhibition of tumour cell growth, NCI panel, 48 h
Test [1] has as its system OVCAR-3.
Test [2] has as its system SK-MEL-2.
The subject of test [3] is UACC-62.
Test [4] concerns MOLT-4.
The test system of test [5] is A549.
For test [6], the system named is SF-295.
For test [7], the system named is A498.
For test [8], the system named is HCC 2998.
The subject of test [9] is RXF 393.
Test [10] concerns KM12.
Test [11] relates to NCI-H460.
Test [12] concerns NCI-H226.
Test [13] has as its system UO-31.
Test [14] relates to HT-29.
Test [15] has as its system OVCAR-4.
Test [16] relates to COLO 205.
The subject of test [17] is HL-60.
For test [18], the system named is NCI/ADR-RES.
In test [19] the test system is HOP-92.
Test [20] relates to SW-620.

Take `CC(C)Cc1cc2c(cc1O)CCC1C2CC[C@@]2(C)C1CC[C@@H]2O` (some centres undefined): the GI50 in test [1] is 5.57 µM (inactive); in test [2], 6.71 µM (inactive); in test [3], 7.71 µM (inactive); in test [4], 3.5 µM (inactive); in [5], 6.84 µM (inactive); in test [6], 4.09 µM (inactive). The GI50 in test [7] was 18.3 µM (inactive); in test [8] it was 13.1 µM (inactive); in [9] it was 4.35 µM (inactive); in test [10], 6.55 µM (inactive); in [11], 10.5 µM (inactive); in test [12] it was 4.79 µM (inactive). In addition, the GI50 is 4.05 µM (inactive) in test [13]; 8.02 µM (inactive) in test [14]; 8.97 µM (inactive) in [15]; 15.2 µM (inactive) in [16]; 1.94 µM (inactive) in test [17]; 6.14 µM (inactive) in [18]. The GI50 in test [19] is 10.2 µM (inactive); in [20], 8.65 µM (inactive).
With `COc1cc(/C=C/C(=O)N[C@@H]2C(=O)N3[C@@H]2SC(C)(C)[C@@H]3C(=O)O)cc(OC)c1OC`, the GI50 in test [1], in [2], in test [3], in [4], in test [5] and in test [6] was > 100 µM (inactive) throughout. Moreover, the GI50 in test [7], in test [8], in [9], in test [10], in test [11] and in test [12] was > 100 µM (inactive) throughout. For the same molecule, the GI50 in [13], in test [14], in test [15], in [16], in test [17] and in test [18] was > 100 µM (inactive) each time. The GI50 in test [19] and in test [20] was > 100 µM (inactive) each time.
For `CC1(C)OC1COc1c2occc2cc2ccc(=O)oc12` (centres undefined), the GI50 in test [1] was > 100 µM (inactive); in test [2] it was > 100 µM (inactive); in [3], 33.1 µM (inactive); in test [4], 79.3 µM (inactive); in [5] it was 67.6 µM (inactive); in test [6] it was > 100 µM (inactive). The GI50 was > 100 µM (inactive) in [7]; > 100 µM (inactive) in [8]; > 100 µM (inactive) in [9]; > 100 µM (inactive) in test [10]; 40.6 µM (inactive) in test [11]; > 100 µM (inactive) in test [12]. The GI50 in test [13] was 72.4 µM (inactive); in test [14], > 100 µM (inactive); in test [15] it was > 100 µM (inactive); in test [16] it was > 100 µM (inactive); in [17] it was 70.5 µM (inactive); in [18], > 100 µM (inactive). Further, the GI50 in [19] and in test [20] was > 100 µM (inactive) each time.
Consider `C[N+](C)(C)C1=NNC2=Nc3ccccc3SC2=C1`, for which the GI50 in test [1] is 19.3 µM (inactive); in [2] it was 14.1 µM (inactive); in test [3], 17 µM (inactive); in test [4], 13 µM (inactive); in test [5], 23.9 µM (inactive); in test [6] it was 9.42 µM (inactive). In addition, the GI50 is 26.4 µM (inactive) in test [7]; 24.4 µM (inactive) in [8]; 20.4 µM (inactive) in test [9]; 23.9 µM (inactive) in [10]; 19 µM (inactive) in [11]; 11.8 µM (inactive) in [12]. Moreover, the GI50 in test [13] is 15 µM (inactive); in test [14], 13.5 µM (inactive); in test [15], 19.7 µM (inactive); in test [16] it was 15 µM (inactive); in test [17], 54.1 µM (inactive); in test [18], 16.1 µM (inactive). In addition, the GI50 in test [19] was 12.1 µM (inactive); in test [20], 24.4 µM (inactive).
Consider `O=[N+]([O-])c1ccc(C2=Nn3c(nnc3-c3ccc(Cl)cc3)SC2)o1`, for which the GI50 is 3.98 µM (inactive) in test [1]; 10.5 µM (inactive) in [2]; 11.1 µM (inactive) in test [3]; 3.28 µM (inactive) in test [4]; 14.3 µM (inactive) in test [5]; 10.9 µM (inactive) in [6]. For the same molecule, the GI50 is 16.9 µM (inactive) in test [7]; 2.39 µM (inactive) in test [8]; 11.5 µM (inactive) in test [9]; 7.93 µM (inactive) in [10]; 6.75 µM (inactive) in test [11]; 16.4 µM (inactive) in test [12]. Besides, the GI50 was 3.5 µM (inactive) in test [13]; 3.22 µM (inactive) in [14]; 3.11 µM (inactive) in test [15]; 2.05 µM (inactive) in [16]; 0.989 µM (active) in [17]; 14.3 µM (inactive) in test [18]. The GI50 was 3.29 µM (inactive) in [19] and 2.37 µM (inactive) in test [20].
Turning to `CC1=C2C(=O)c3ccccc3C(=O)[C@H]2[C@H]2CCO[C@H]2O1`, the GI50 in test [1] was 19.1 µM (inactive); in [2], 18.8 µM (inactive); in [3], 20.4 µM (inactive); in test [4] it was 30.5 µM (inactive); in test [5], 32.2 µM (inactive); in [6] it was 23 µM (inactive). In addition, the GI50 is > 100 µM (inactive) in test [7]; 19.4 µM (inactive) in test [8]; 14.4 µM (inactive) in test [9]; 24.5 µM (inactive) in [10]; 21 µM (inactive) in test [11]; 71 µM (inactive) in test [12]. Moreover, the GI50 in test [13] was 18.1 µM (inactive); in test [14], 31.2 µM (inactive); in [15], 19.5 µM (inactive); in test [16] it was 42.2 µM (inactive); in test [17], 27.7 µM (inactive); in test [18], 27 µM (inactive). The GI50 in test [19] is 20 µM (inactive); in [20], 21.1 µM (inactive).
Turning to `O=C1CCCc2ccc3c(c21)CC1(Cc2cc4c(cc2C1)CCCC4)C3`, the GI50 in test [1] was 20.1 µM (inactive); in [2] it was 21.2 µM (inactive); in test [3], 20.3 µM (inactive); in test [4] it was 14.8 µM (inactive); in [5], 22 µM (inactive); in [6], 29.8 µM (inactive). The GI50 in test [7] was 37.6 µM (inactive); in test [8], 42.9 µM (inactive); in test [9] it was 15.6 µM (inactive); in test [10], 22.2 µM (inactive); in test [11], 22.8 µM (inactive); in test [12], 17.4 µM (inactive). The GI50 is 15.7 µM (inactive) in test [13]; 18.4 µM (inactive) in [14]; 22.1 µM (inactive) in test [15]; 14.8 µM (inactive) in test [16]; 6.05 µM (inactive) in test [17]; 25.9 µM (inactive) in [18]. The GI50 in test [19] was 12.9 µM (inactive); in test [20] it was 16 µM (inactive).
Regarding `C/C=C/[C@@H]1[C@H]2C(=O)[C@]3(Cl)[C@@H](/C=C/C)[C@@H]3C(=O)[C@@]12Cl`, the GI50 in test [1] was > 100 µM (inactive); in [2] it was > 100 µM (inactive); in test [3] it was > 100 µM (inactive); in [4] it was 7.16 µM (inactive); in [5], > 100 µM (inactive); in [6] it was > 100 µM (inactive). Besides, the GI50 in [7] is > 100 µM (inactive); in test [8], > 100 µM (inactive); in test [9], 55.3 µM (inactive); in test [10], > 100 µM (inactive); in [11], > 100 µM (inactive); in test [12], > 100 µM (inactive). The GI50 in [13], in test [14], in test [15], in test [16], in [17] and in test [18] was > 100 µM (inactive) in each case. Besides, the GI50 was 94 µM (inactive) in [19] and > 100 µM (inactive) in test [20].
As to `CNC1Cc2c[nH]c3cccc(c23)C12C=C(C)C(=O)O2` (centres undefined), the GI50 in [1], in test [2], in [3], in test [4], in test [5] and in [6] was > 100 µM (inactive) throughout. Besides, the GI50 in [7], in [8], in [9], in test [10], in test [11] and in test [12] was > 100 µM (inactive) each time. The GI50 in test [13], in test [14], in test [15], in test [16], in test [17] and in [18] was > 100 µM (inactive) each time. Further, the GI50 in test [19] and in test [20] was > 100 µM (inactive) in each case.
As for `Nc1nc(S)c2c(N)n[nH]c2c1C(=O)Nc1ccccc1`, the GI50 in test [1], in test [2], in test [3], in test [4], in [5] and in [7] was > 100 µM (inactive) each time. Moreover, the GI50 was > 100 µM (inactive) in test [8]; > 100 µM (inactive) in test [9]; 65.5 µM (inactive) in test [10]; > 100 µM (inactive) in test [11]; > 100 µM (inactive) in test [12]; > 100 µM (inactive) in [13]. Besides, the GI50 in test [14], in [15], in [16], in test [17], in [18] and in test [19] was > 100 µM (inactive) in each case. For the same molecule, the GI50 in [20] is > 100 µM (inactive).
